The target of test [1] is T1, Jak2 JH2-WT (Homo sapiens, UniProt O60674, F794H/W659A/W777A).
T1 construct: 6xHis (N); made in house; host or cells: baculovirus-infected Sf9 cells
Description: mant-ATP binding (decrease of tryptophan emission by FRET) to JH2-WT. The note with it: fluorescent ATP analog mant-ATP, FIG. 5. The protocol: FIG. 5 depicts ATP binding to JH2-WT. The decrease of the tryptophan emission signal at 340 nm (excitation wavelength at 285 nm) resulting from FRET upon mant-ATP binding to JH2 was measured as a function of mant-ATP concentration. The plotted data points are an average of two experiments.
(§1) As a first step in characterizing the catalytic properties of Jak2 JH2, dissociation constants (Kd values) for ATP binding to JH2-WT and -VF were obtained using the fluorescent ATP analog mant-ATP.

Test [2] concerns the target T2, insulin receptor kinase (phosphorylated, active form) (Homo sapiens, UniProt P06213).
T2 construct: the insulin receptor kinase (phosphorylated, active form)
Description: mant-ATP binding to insulin receptor kinase (comparison).

Test [3] addresses T3, JAK2 JH2 (JH2-Peak2) (Homo sapiens, UniProt O60674).
T3 construct: We produced and purified human Jak2 JH2, residues 513-824, as described previously; 6xHis (C, cleaved yes); made in house; host or cells: Sf9 insect cells (baculovirus, pFASTBAC1)
Nature of the test: Mant-ATP binding assay (fluorescence) with JH2-Peak2. How it is done:
FIG. 13 provides an analysis of JAK2 JH2 autophosphorylation and ATP binding activity. (a) Time-course kinase assay of purified JH2-Peak1 and JH2-Peak2. (b) Time-course kinase assay of purified JH2 S523A and Y570F mutants compared to JH2-Peak2. (c) Fluorescence measurement of ATP binding assay of JAK2 JH2-Peak2. (d) Kd measurement of mant-ATP binding to JH2-Peak2. Graph, mean±s.d. of three independent experiments.
The fluorescence intensity of mant-ATP (Invitrogen) complex with JH2 was measured using FluoroMax-2 spectrofluorimeter. Mant-ATP (1 μM) was added to a buffer solution (20 mM TRIS-HCl, pH 8, 200 mM NaCl, 10% (v/v) glycerol and 0.5 mM TCEP) along with 5 mM MnCl2 and 1 μM JH2 (from peak 2 fraction). The excitation and emission wavelengths were 280 nm and 440 nm, respectively, and emission was scanned from 400-500 nm. For kd measurements, increased concentration of purified JH2 (0.25 μM-6 μM) was added to buffer solution with 5 mM MnCl2 and 1 μM mant-ATP.
If the pseudokinase domain of JAK2 is an active protein kinase, utilizing ATP as a phosphate donor, it should bind ATP with a physiologic Kd value. The binding of ATP to JH2 of JAK2 was evaluated using the fluorescent ATP-analogue mant [2′-(3′)—O—(N-methylanthraniloy)]-ATP. […] Mant-ATP bound to JH2 with a Kd of ˜1 μM (FIG. 13d), which is ˜10% of the reported Kd for JH1 of JAK2 (Hall, et al., Protein Expr. Purif. 2010; 69: 54-63). […]

For test [4], the target named is T4, Jak2 JH2-VF (V617F) (Homo sapiens, UniProt O60674, F794H/V617F/W777A).
T4 construct: 6xHis (N); made in house; host or cells: baculovirus-infected Sf9 cells
Description: mant-ATP binding to JH2-VF. The settings on record: fluorescent ATP analog mant-ATP.
Text: as §1

Usually Kd stands for a measure of binding affinity in units of concentration. A high value points to weaker binding.

T2 sequence (P06213 1023-1298 limits assumed): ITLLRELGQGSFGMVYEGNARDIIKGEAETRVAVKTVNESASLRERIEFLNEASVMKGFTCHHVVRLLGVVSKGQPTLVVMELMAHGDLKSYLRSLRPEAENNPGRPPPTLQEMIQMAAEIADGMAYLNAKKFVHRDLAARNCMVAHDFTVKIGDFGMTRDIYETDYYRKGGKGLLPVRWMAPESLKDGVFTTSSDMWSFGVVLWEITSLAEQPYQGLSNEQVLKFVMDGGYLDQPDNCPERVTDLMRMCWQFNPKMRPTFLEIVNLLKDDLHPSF
T3 sequence (O60674 513-824): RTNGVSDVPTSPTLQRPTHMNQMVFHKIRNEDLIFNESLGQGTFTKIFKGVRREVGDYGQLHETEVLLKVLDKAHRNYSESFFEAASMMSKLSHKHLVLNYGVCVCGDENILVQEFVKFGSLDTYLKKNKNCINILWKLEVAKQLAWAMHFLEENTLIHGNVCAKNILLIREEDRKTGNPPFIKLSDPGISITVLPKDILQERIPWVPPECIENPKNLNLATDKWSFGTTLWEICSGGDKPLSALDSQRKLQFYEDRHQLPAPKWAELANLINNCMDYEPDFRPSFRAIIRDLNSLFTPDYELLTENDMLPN
T4 sequence (O60674 536-812 V617F/W777A/F794H): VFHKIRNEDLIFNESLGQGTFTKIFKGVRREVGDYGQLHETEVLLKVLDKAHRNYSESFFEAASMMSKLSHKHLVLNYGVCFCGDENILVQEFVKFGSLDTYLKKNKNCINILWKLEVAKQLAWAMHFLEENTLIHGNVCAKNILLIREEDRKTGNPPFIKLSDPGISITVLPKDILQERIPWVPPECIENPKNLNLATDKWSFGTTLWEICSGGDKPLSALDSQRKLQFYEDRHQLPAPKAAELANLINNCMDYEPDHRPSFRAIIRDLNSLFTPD
T1 sequence (O60674 536-812 W659A/W777A/F794H): as the sequence (O60674 536-812 V617F/W777A/F794H) above, with F82V, W124A counted along it

Take “mant [2′-(3′)—O—(N-methylanthraniloy)]-ATP [mant-ATP]”: the Kd in test [1] was 82 nM; in test [2] (insulin receptor kinase, phosphorylated active form, same measurement), 14000 nM; in test [3] (JH2-Peak2, 5 mM MnCl2, 1 μM mant-ATP, JH2 0.25-6 μM, FIG. 13d) it was roughly 1000 nM; in test [4], 84 nM. Further, the “Kd fold higher than for JH2” value in test [2] (insulin receptor kinase Kd versus Jak2 JH2 Kd) is roughly 30 fold. Besides, the “Kd as percentage of the reported Kd for JH1 of JAK2” value in test [3] (JH2 Kd versus literature Kd for JH1 (Hall et al. 2010)) is roughly 10%.
